Results as given in patent publication US9181290B2, “Inhibition of biofilm formation by 1,2,3,4,6-penta-O-galloyl-D-glucopyranose” (CHANG GUNG UNIVERSITY, priority 2011, dated 2015).

What was measured:
S. aureus SA113 [1] = test: CFU counting of cells adhered to polycarbonate surface; assay type: cell-based, Staphylococcus aureus
Excerpt: To count the number of viable cells, the removed suspended cells were suspended in PBS by pipetting, and the resultant cell suspension was sonicated and serially diluted and subsequently plated on TSBg agar plate for colony forming unit (CFU) counting according to a method described earlier (S. Schlag et al. (2007), J. Bacteriol., 189:7911-7919).
To quantify the amount of biofilm formed on polycarbonate surface, a 13-mm-diameter polycarbonate disc (Thermanox, Nalgene Nunc International, Rochester, N.Y., USA) was placed in a well of a 24-well microtiter plate, followed by the addition of 1 mL aliquot of the diluted bacterial culture. After incubation at 37° C. for a designated period of time, viable cells were washed off the surface of the polycarbonate disc with PBS and counted as described above, while the PBS-washed polycarbonate disc was subjected to crystal violet staining for biofilm quantification as described above.
In addition to biofilm formation, the number of cells attached to polystyrene surface and polycarbonate surface were also counted.

[2] = tested on: S. epidermidis RP62A (ATCC 35984); test: Growth (A578) and biofilm (A595) in polystyrene plates; assay type: cell-based, Staphylococcus epidermidis
Experimental: (§1) In addition to the above S. aureus strains, S. epidermidis ATCC 35547 and S. epidermidis RP62A (ATCC 35984) were also studied for comparison.
(§2) An overnight bacterial culture was 200-fold diluted with TSBg, and a 200 μL aliquot of the diluted culture was seeded into each well of 96-well polystyrene microtiter plates and incubated at 37° C. for a designated period of time. Cell growth was determined by measuring the absorbance at 578 nm (A578) with a microtiter plate reader (SpectraMax 340, Molecular Devices). After washing with PBS twice to remove suspended cells, the wells were stained with 0.1% (w/v) crystal violet in 10% ethanol and then treated with 30% acetic acid in dH2O, followed by detecting the absorbance at 595 nm (A595) with the microtiter plate reader to quantify the amount of biofilm formed on polystyrene surface.

[3] = tested on: S. epidermidis ATCC 35547; test: as above; assay type: cell-based, Staphylococcus epidermidis; conditions: 12.5 μM β-PGG, 6 hr
Experimental: as §1, §2

[4] = tested on: polysaccharide intercellular adhesion (PIA) production by S. aureus SA113; test: Quantification of PIA by chemiluminescence (WGA-biotin/HRP-streptavidin); assay type: cell-based, Staphylococcus aureus; conditions: 6 hrs; for decrease of the amount of PIA formed on the cell surface: densitometer, untreated = 100%
Experimental: The amount of PIA was determined by chemiluminescence detection using horseradish peroxidase-conjugated streptavidin (Pierce) according to a method described elsewhere (S. Schlag et al. (2007), supra). Briefly, a tested bacterial strain prepared in TSBg broth was added with β-PGG at a designated concentration and then cultured in a 9 cm petri dish for 6 hrs. The bacterial cells grown in the petri dish were collected by scraping, followed by centrifugation, and the resultant cell pellets were redissolved by addition of 3 mL of 0.5 M EDTA (pH 8.0) for every gram (wet weight) of cell pellet, followed by boiling at 100° C. for 10 min. After centrifugation at 10,000 g for 30 min, the resultant supernatant was 100-fold diluted. An 80 μL aliquot of the diluted supernatant was incubated with 20 μL of proteinase K (10 mg/mL, in dH2O) at 37° C. for 2 hrs, followed by blotting onto a PVDF membrane (Millipore) using a 96-well dot-blot apparatus. After blotting, the membrane was dried and soaked in a first blocking buffer (containing 3% bovine serum albumin (BSA) and 0.05% Tween-20 in PBS), followed by incubation at room temperature for 1 hr in the first blocking buffer containing 0.8 μg/mL wheat germ agglutinin conjugated with biotin (WGA-biotin, Sigma-Aldrich). After sequentially washing with the first blocking buffer and a second blocking buffer (containing 1% BSA and 0.05% Tween-20 in PBS), the membrane was incubated with horseradish peroxidase-conjugated streptavidin (Pierce) for 30 min, and washed 4 times with the first blocking buffer, followed by incubation with 1 mL of a substrate reagent (Luminol/Enhancer solution and Stable Peroxide solution, Pierce) at room temperature for 5 min. Thereafter, the membrane was detected by autoradiography using X-ray film, and the intensity of each spot formed on the X-ray film was quantified using a densitometer (LAS-3000, Fujifilm). The relative PIA amount produced by the tested bacterial strain was determined based on the detected intensity, with the amount of PIA from bacterial cells without PGG treatment being set as 100%.
To detect PIA in culture medium, the medium was concentrated using an Amicon-Ultra4 centrifuge filter (Millipore, Billerica, Mass., USA) prior to extraction.
Similar experiments were performed using four clinical isolates of S. aureus, namely MSSA strains SA13 and SA288, and MRSA strains SA44 and SA 130.

S. aureus SA113 [5] = test: Biofilm formation on β-PGG/polyaniline-coated silicon rubber discs (safranin staining); assay type: cell-based; conditions: Staphylococcus aureus, polyaniline carrier, 24 hrs
Experimental: β-PGG (stock conc.: 8.89 μg/mL in DMSO) in various amounts was evenly mixed with a fixed amount of polyaniline (40 μL, 3 mg/mL in DMSO) so as to provide a 100 μL β-PGG/polyaniline mixture with a final β-PGG concentration of 0.47 μM, 0.94 μM, 1.89 μM, 3.78 μM, 4.73 μM or 5.67 μM. The resultant β-PGG/polyaniline mixture was coated on the inner surfaces of the wells of 96-well polystyrene microtiter plates in an amount of 100 μL per well. After β-PGG coating, the plates were dried in a vacuum chamber, followed by UV sterilization for 30 min. An overnight culture of S. aureus SA113 was 200-fold diluted with TSBg, and a 200 μL aliquot of the diluted culture was seeded into each well of the β-PGG-coated microtiter plates. After culturing at 37° C. for 24 hrs, the wells were washed twice with PBS, and then examined by safranin staining according to a method described earlier (Christine Heilmann et al. (1996), Infect. Immun., 64 (1):277-282), so as to quantify the amount of biofilm formed on the β-PGG-coated polystyrene surface.
Meanwhile, 6-mm diameter silicon rubber discs, which were cut from a sheet of 2-mm thick silicon rubber with a paper punch, were also coated with the resultant β-PGG mixture in an amount of 100 μL per disc. […] After incubation at 37° C. for 24 hrs, each silicon rubber disc was subjected to safranin staining, so as to quantify the amount of biofilm formed thereon.

SMILES: O=C(OC[C@H]1O[C@@H](OC(=O)c2cc(O)c(O)c(O)c2)[C@H](OC(=O)c2cc(O)c(O)c(O)c2)[C@@H](OC(=O)c2cc(O)c(O)c(O)c2)[C@@H]1OC(=O)c1cc(O)c(O)c(O)c1)c1cc(O)c(O)c(O)c1 [β-PGG, 1,2,3,4,6-penta-O-galloyl-β-D-glucopyranose]
- number of cells attached to polycarbonate surface (S. aureus SA113 [1]; 6.25 μM, 20 min, DMSO control 7×10^5): 2.9×10^5 CFU
- number of cells attached to polycarbonate surface (S. aureus SA113 [1]; 6.25 μM, 40 min, DMSO control 1.1×10^6): 2.3×10^5 CFU
- number of cells attached to polycarbonate surface (S. aureus SA113 [1]; 6.25 μM, 60 min, DMSO control 2×10^6): 3.5×10^5 CFU
- number of cells attached to polycarbonate surface (S. aureus SA113 [1]; 12.5 μM, 20 min, DMSO control 7×10^5): 1.0×10^5 CFU
- number of cells attached to polycarbonate surface (S. aureus SA113 [1]; 12.5 μM, 40 min, DMSO control 1.1×10^6): 8×10^4 CFU
- number of cells attached to polycarbonate surface (S. aureus SA113 [1]; 12.5 μM, 60 min, DMSO control 2×10^6): 5×10^4 CFU
- reduction of biofilm formation ([2]; 12.5 μM): 35%
- Growth (A578) ([2]; 12.5 μM β-PGG, 6 hr, 0 μM: 0.57 ± 0.09): 0.56 ± 0.09
- Biofilm (A595) ([2]; 12.5 μM β-PGG, 6 hr, 0 μM: 6.43 ± 0.04): 4.18 ± 0.54
- Growth (A578) ([3]; 0 μM: 0.50 ± 0.01): 0.42 ± 0.01
- Biofilm (A595) ([3]; 0 μM: 1.42 ± 0.09): 0.15 ± 0.11
- decrease of the amount of PIA formed on the cell surface ([4]; 3.13 μM): 7%
- decrease of the amount of PIA formed on the cell surface ([4]; 12.5 μM): 58%
- decrease of the amount of PIA formed on the cell surface ([4]; 50 μM): 87%
- PIA production (extracted from bacterial cells) ([4]; 3.13, 12.5 and 50 μM): PIA production was inhibited
- PIA released into the culture medium ([4]; 3.13, 12.5 and 50 μM): decreased after β-PGG treatment in a dose-dependent manner
- inhibition at 1.9 µM (S. aureus SA113 [5]; coating with 1.9 μM β-PGG): 62%
- inhibition at 5.7 µM (S. aureus SA113 [5]; coating with 5.7 μM β-PGG): 85%
